Earlier results, collected in patent EP3501609A1 (Zentiva K.S., priority 2017, dated 2019).

solubility (pH 1.2): poorly soluble | solubility in water (pH range of 4.5-8): virtually insoluble
SMILES: C=CC(=O)N1CCC[C@@H](n2nc(-c3ccc(Oc4ccccc4)cc3)c3c(N)ncnc32)C1 [ibrutinib form A]
